The text below walks through data of US4468399A, “2-[2-(2-Aminoalkyl-4-thiazolylmethylthio)alkyl]-amino-5-substituted-4-pyr imidones” (Eli Lilly and Company, priority 1983, dated 1984).

pIC50: −log10 of the molar value.

Experiment [1] deals with H2-receptor. The settings on record: cited from earlier work; for H2-receptor antagonist activity in words: prior art.
Experiment [2] relates to acid secretion. The experiment in a line: in vivo antisecretory assay, gastric fistula dogs, histamine-stimulated gastric secretion. The settings on record: for antisecretory potency relative to cimetidine, iv route: iv infusion over 30 minute period, histamine iv infusion; for recovery of acid secretions from an effective dose: after 3-4 hours. How it is done:
An in vivo assay for the antisecretory action of drugs on acid secretion utilizes gastric fistula dogs with a vagally innervated gastric fistula and vagally denervated Heidenthain pouch. A steady-state gastric secretion is produced by the iv infusion of histamine. The antisecretory drugs under test are given either intravenously by infusion over a 30 minute period or orally 75 min. prior to collection of gastric secretion from the fistula. In this assay, 2-[2-(2-dimethylaminomethyl-4-thiazolylmethylthio)ethyl]amino-5-(3-pyridyl)methyl-4-pyrimidone was 11X cimetidine by the iv route and 14X cimetidine orally. The 6-methyl-2-pyridyl analog was 14.4X cimetidine intravenously.

Experiment [3] has as its target T1, H2 receptor (Rattus norvegicus, UniProt P25102).
T1 construct: uterine horns removed therefrom and suspended at ambient temperature in isolated organ baths; from tissue; host or cells: isolated uterine horn strips of estrone-treated female albino rats
The experiment in a line: H2 receptor blocking activity, histamine-induced relaxation of isolated rat uterine strips. Conditions: antagonist 10^-5 molar, 30 minutes, dissociation constant from dose ratio of histamine ED50; read-out: -logKb (converted). The experiment is classed as cell-based, rat (female albino rats). The procedure: The following assay for H2 receptor blocking activity was employed. Female albino rats are treated with estrone 24 hours prior to the initiation of the experiment. The rats are sacrificed and the uterine horns removed therefrom and suspended at ambient temperature in isolated organ baths containing De Jalon's solution. After equilibration, the uterine strips are exposed to 50 millimole aqueous potassium chloride, which produces a sustained contraction. When the uterus is so contracted, histamine produces a dosedependent H2 receptor-mediated relaxation. A control dose-response curve to histamine is constructed on each tissue. Following thorough washout of the histamine after obtaining the control dose-response curve, each antagonist (a compound of this invention) is added for 30 minutes at a concentration of 10^-5 molar. The uterine strips are then contracted with aqueous potassium chloride in the presence of the antagonist and a second dose-response curve to histamine obtained. In the presence of a competitive antagonist, the dose-response curve to histamine is shifted in parallel to the right with no depression of the maximum relative to the control curve. The dose ratio (DR) is calculated for each concentration of antagonist by dividing the ED50 of histamine in the presence of the competitive antagonist by the control ED50 for histamine. The dissociation constant (KB) of the antagonist is calculated from the dose-ratios by the following equation: […]
Cimetidine is included as an internal standard.
In the table, column 1 gives the name of the compound under test and column 2, the -logKb value for that compound.

In experiment [4] the test system is H2 receptor. The experiment in a line: H2 receptor blocking activity, isolated bullfrog gastric mucosa, histamine-stimulated acid secretion. The settings on record: inhibition of acid secretion stimulated by 10^-5 M histamine; antagonist in serosal chamber; read-out: ED50 (the source's name). The experiment is classed as cell-based, bullfrog (Rana catesbeiana). The procedure:
A second assay for H2 receptor blocking activity employs the isolated bullfrog gastric mucosa--see Warrick and Lin, Communications in Chem. Pathology and Pharmacology, 13, 149 (1976). The assay is carried out as follows: The gastric mucosa of the bullfrog (Rana catesbeiana) is separated from the musculature of the stomach and placed between a pair of Ussing chambers made of lucite. The chambers are filled with frog Ringer solution and acid secretion is stimulated by addition of histamine to the serosal side of the mucosa at a final concentration of 10^-5 M. Acid output is automatically titrated to pH 4.5. After steady response to 10^-5 M of histamine is established, the antagonist (a compound of this invention) is added to the serosal chamber and the maximal inhibition by each concentration of the H2 -antagonist is recorded. From the dose-response curve, the ED50 of the drug is calculated.
In Table 2, column 1 gives the substituent at 6 in the pyrimidone ring, column 2 the "B" group (see formula at the head of the Table), and column 3 the molar ED50.

T1 sequence (P25102 whole entry): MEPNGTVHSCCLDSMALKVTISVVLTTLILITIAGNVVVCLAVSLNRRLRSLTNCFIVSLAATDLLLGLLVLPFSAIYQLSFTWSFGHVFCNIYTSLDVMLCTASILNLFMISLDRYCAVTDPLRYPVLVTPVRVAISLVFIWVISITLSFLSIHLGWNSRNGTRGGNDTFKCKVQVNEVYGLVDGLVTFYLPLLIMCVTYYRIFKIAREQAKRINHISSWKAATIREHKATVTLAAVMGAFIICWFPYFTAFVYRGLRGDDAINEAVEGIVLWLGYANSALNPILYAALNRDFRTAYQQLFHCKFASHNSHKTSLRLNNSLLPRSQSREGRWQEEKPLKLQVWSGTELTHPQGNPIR

In the case of `C#CCNC(=C[N+](=O)[O-])NCCSCc1ccc(CN(C)C)o1` [1-nitro-2-(2-propynylamino)-2-(2-[(5-dimethylaminomethyl-2-furyl)methylthio]ethylamino)ethylene], in experiment [1] (U.S. Pat. No. 4,203,909), the “activity relative to cimetidine in a standard H2-receptor assay” value is recorded as 7.45 times the activity of cimetidine.
On to `CNC(=NC#N)NCCSCc1csc(NC(=N)N)n1` [2-guanidino-4-[2-(2-cyano-3-methylguanidino)ethylthiomethyl]thiazole], for which the “H2-receptor antagonist activity in words” value in experiment [1] was “greatly increased activity over cimetidine”.
In the case of `Cc1cccc(Cc2c[nH]c(NCCSCc3csc(CN(C)C)n3)nc2=O)n1` [6-methyl-2-pyridyl analog], the “antisecretory potency relative to cimetidine, iv route” value in experiment [2] turned out to be 14.4 X cimetidine.
On to `CN(C)Cc1nc(CSCCNc2ncc(Cc3cccnc3)c(=O)[nH]2)cs1` [Example 1, 2-[2-(2-dimethylaminomethyl-4-thiazolylmethylthio)ethyl]amino-5-(3-pyridyl)methyl-4-pyrimidone], for which, in experiment [2], the “recovery of acid secretions from an effective dose” value is listed as “about 25%” and the “antisecretory potency relative to cimetidine, iv route” value amounted to 11 X cimetidine. Moreover, the “antisecretory potency relative to cimetidine, orally” value in experiment [2] (orally 75 min. prior to collection of gastric secretion) was 14 X cimetidine. Moreover, the Kd in experiment [3] was 1.1 nM. Moreover, in experiment [4], the pIC50 is 6.94.
Turning to `CN(C)Cc1nc(CSCCNc2nc(=O)c(Cc3ccc4c(c3)OCO4)c[nH]2)cs1` [Example 2, 2-[2-(2-dimethylaminomethyl-4-thiazolylmethylthio)ethyl]amino-5-[5-(1,3-benzodioxoly)]methyl-4-pyrimidone], the Kd in experiment [3] was 4.37 nM. Also, the pIC50 in experiment [4] was 4.95.
For `Cc1ccc(Cc2cnc(NCCSCc3csc(CN(C)C)n3)[nH]c2=O)cn1` [Example 3, 2-[2-(2-dimethylaminomethyl-4-thiazolylmethylthio)ethyl]amino-5-(6-methyl-3-pyridyl)methyl-4-pyrimidone] the same measures were 11.2 nM and 5.87.
The corresponding values for `COc1ccc(Cc2cnc(NCCSCc3csc(CN(C)C)n3)[nH]c2=O)cn1` [Example 4, 2-[2-(2-dimethylaminomethyl-4-thiazolylmethylthio)ethyl]amino-5-(6-methoxy-3-pyridyl)methyl-4-pyrimidone] are 60.3 nM and 4.90.
The corresponding values for `Cc1cc(Cc2cnc(NCCSCc3csc(CN(C)C)n3)[nH]c2=O)cnc1C` [Example 5, 2-[2-(2-dimethylaminomethyl-4-thiazolylmethylthio)ethyl]amino-5-(5,6-dimethyl-3-pyridyl)methyl-4-pyrimidone] are 3.89 nM and 5.63.
On to `CN(C)Cc1nc(CSCCNc2ncc(Cc3ccc(O)nc3)c(=O)[nH]2)cs1` [Example 6, 2-[2-(2-dimethylaminomethyl-4-thiazolylmethylthio)ethyl]amino-5-(6-hydroxy-3-pyridyl)methyl-4-pyrimidone], for which, in experiment [4], the pIC50 is 6.60.
Same read-out and setting: in the case of `COc1cc(Cc2cnc(NCCSCc3csc(CN(C)C)n3)[nH]c2=O)ccn1` [Example 7, 2-[2-(2-dimethylaminomethyl-4-thiazolylmethylthio)ethyl]amino-5-(2-methoxy-4-pyridyl)methyl-4-pyrimidone] it was 5.52; in that of `Cc1nc(NCCSCc2csc(CN(C)C)n2)[nH]c(=O)c1Cc1cccnc1` [Example 8, 2-[2-(2-dimethylaminomethyl-4-thiazolylmethylthio)ethyl]amino-5-(3-pyridyl)methyl-6-methyl-4-pyrimidone], 5.70; in that of `CN(C)Cc1nc(CSCCNc2ncc(Cc3ccnc(O)c3)c(=O)[nH]2)cs1` [Example 9, 2-[2-(2-dimethylaminomethyl-4-thiazolylmethylthio)ethyl]amino-5-(2-hydroxy-4-pyridyl)methyl-4-pyrimidone], 6.22.
On to `CN(C)Cc1nc(CSCCNc2ncc(Cc3ccccn3)c(=O)[nH]2)cs1` [Example 10, 2-[2-(2-dimethylaminomethyl-4-thiazolylmethylthio)ethyl]amino-5-(2-pyridyl)methyl-4-pyrimidone], for which, in experiment [3], the Kd was 17.4 nM. The pIC50 in experiment [4] was 6.79.
For `CN(C)Cc1nc(CSCCNc2ncc(Cc3ccncc3)c(=O)[nH]2)cs1` [Example 11, 2-[2-(2-dimethylaminomethyl-4-thiazolylmethylthio)ethyl]amino-5-(4-pyridyl)methyl-4-pyrimidone] the same measures were 12.9 nM and 6.71.
On to `CNC(=S)NCCCCc1cnc[nH]1` [burimamide], for which the “H2-receptor antagonist activity in words” value in experiment [1] is given as “powerful H2 -receptor antagonist”.
As to `CNC(=NCCSCc1nc[nH]c1C)NC#N` [cimetidine, N-cyano-N'-methyl-N"-[2-([(5-methyl-1H-imidazol-4-yl)methyl]thio)ethyl]guanidine, reference compound], in experiment [2], the “recovery of acid secretions from an effective dose” value is roughly 50%.
